25 molecules from patent publication US7504420B2, “Compounds which inhibit beta-secretase activity and methods of use” (CoMentis, Inc., priority 2005, dated 2009) can be followed below.

The test system of assay [1] is Aβ production in Chinese hamster ovary cells that over-express human APP695 with the London and Swedish mutations. The experiment in a line: Cellular Aβ IC50 determination (Aβ40 sandwich ELISA). As to conditions: Cricetulus griseus, CHO, 24 h. A general note: ELISA stands for enzyme-linked immunosorbent assay.
The next assay has as its target memapsin 2 (Homo sapiens, UniProt P56817). Put plainly: Inhibition of memapsin 2 catalytic activity (Ki). It counts as biochemical. As to conditions: memapsin 2, pH 4, 37° C. How it is done: Potency of compounds were determined by measurement of their inhibition of memapsin 2 catalytic activity toward a fluorescent substrate. […] Briefly, assays were performed at pH 4, 37° C., by pre-incubation of memapsin 2 enzyme with compound for 20 minutes. Activity measure was initiated by addition of a fluorogenic substrate FS-2 (Bachem Americas, Torrance, Calif.). Fluorescent signal increase over time was measured as a rate of hydrolysis of the peptide substrate. […]

Setting [2] is: read-out: Cell, Aβ40, CHO cells over-expressing human APP695 (London and Swedish mutations), 24 h.

SMILES strings stand for the structures. Where two headings read alike, the source gives them in different places. Where only a bound is given, the exact number is not on record here.

Chain of memapsin 2 (P56817 46-501): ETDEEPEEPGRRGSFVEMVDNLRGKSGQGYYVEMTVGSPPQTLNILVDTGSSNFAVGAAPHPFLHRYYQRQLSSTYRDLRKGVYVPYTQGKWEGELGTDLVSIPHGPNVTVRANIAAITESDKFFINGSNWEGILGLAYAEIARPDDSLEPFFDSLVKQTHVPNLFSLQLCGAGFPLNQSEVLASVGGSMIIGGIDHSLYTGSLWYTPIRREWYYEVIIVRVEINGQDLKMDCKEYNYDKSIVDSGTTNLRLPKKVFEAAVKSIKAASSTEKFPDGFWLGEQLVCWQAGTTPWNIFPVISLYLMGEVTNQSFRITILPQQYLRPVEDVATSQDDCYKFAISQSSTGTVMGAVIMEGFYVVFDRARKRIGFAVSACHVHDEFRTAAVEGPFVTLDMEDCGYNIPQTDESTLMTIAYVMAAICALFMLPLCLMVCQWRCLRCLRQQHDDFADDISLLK

With `Cc1csc(CN(C)C(=O)c2cccc(C(=O)NC(Cc3ccccc3)C(O)CNCc3cccc(CC(C)C)c3)c2)n1` (centres unmarked) [N1-(3-hydroxy-4-(3-isobutylbenzylamino)-1-phenylbutan-2-yl)-N3-methyl-N3-((4-methylthiazol-2-yl)methyl)isophthalamide], the IC50 in assay [1] (setting [2]) was below 1 µM. The Ki on memapsin 2 (read-out: M2K) is below 0.3 µM.

In the case of `COc1cccc(CNCC(O)C(Cc2ccccc2OC)NC(=O)c2cc(C(=O)NC(C)c3ccccc3)cc(N(C)S(C)(=O)=O)c2)c1` (centres unmarked) [N1-(3-hydroxy-4-(3-methoxybenzylamino)-1-(2-methoxyphenyl)butan-2-yl)-5-(N-methylmethylsulfonamido)-N3-(1-phenylethyl)isophthalamide], the IC50 in assay [1] (setting [2]) is above 5 µM. In addition, on memapsin 2 (read-out: M2K), the Ki was 0.301 to 0.5 µM.

As to `COc1cccc(CNCC(O)C(Cc2cscn2)NC(=O)c2cc(C(=O)NC(C)c3ccccc3)cc(N(C)S(C)(=O)=O)c2)c1` (centres unmarked) [N1-(3-hydroxy-4-(3-methoxybenzylamino)-1-(thiazol-4-yl)butan-2-yl)-5-(N-methylmethylsulfonamido)-N3-(1-phenylethyl)isophthalamide], the IC50 in assay [1] (setting [2]) was below 1 µM. The Ki on memapsin 2 (read-out: M2K) is below 0.3 µM.

On to `COc1cccc(CNCC(O)C(Cc2ccccc2)NC(=O)c2cc(C(=O)NC(C)c3nc(C)co3)cc(N(C)S(C)(=O)=O)c2)c1` (centres unmarked) [N1-(3-hydroxy-4-(3-methoxybenzylamino)-1-phenylbutan-2-yl)-5-(N-methylmethylsulfonamido)-N3-(1-(4-methyloxazol-2-yl)ethyl)isophthalamide], for which the IC50 in assay [1] (setting [2]) is below 1 µM. In addition, the Ki on memapsin 2 (read-out: M2K) was below 0.3 µM.

As to `COc1cccc(CNCC(O)C(Cc2ccccc2)NC(=O)c2cc(C(=O)NC(C)c3nccs3)cc(N(C)S(C)(=O)=O)c2)c1` (centres unmarked) [N1-(3-hydroxy-4-(3-methoxybenzylamino)-1-phenylbutan-2-yl)-5-(N-methylmethylsulfonamido)-N3-(1-(thiazol-2-yl)ethyl)isophthalamide], in assay [1] (setting [2]), the IC50 is below 1 µM. Also, the Ki at memapsin 2 (read-out: M2K) was below 0.3 µM.

As to `COc1cccc(CNCC(O)C(Cc2ccccc2)NC(=O)c2cc(CS(C)(=O)=O)cc(C(=O)NC(C)c3ccccc3)c2)c1` (centres unmarked) [N1-(3-hydroxy-4-(3-methoxybenzylamino)-1-phenylbutan-2-yl)-5-(methylsulfonylmethyl)-N3-(1-phenylethyl)isophthalamide], the IC50 in assay [1] (setting [2]) is below 1 µM. Besides, the Ki at memapsin 2 (read-out: M2K) was below 0.3 µM.

In the case of `COc1cccc(CNCC(O)C(Cc2ccccc2)NC(=O)c2cc(C(=O)NCc3nc(CO)co3)cc(N(C)S(C)(=O)=O)c2)c1` (centres unmarked) [N1-(3-hydroxy-4-(3-methoxybenzylamino)-1-phenylbutan-2-yl)-N3-((4-(hydroxymethyl)oxazol-2-yl)methyl)-5-(N-methylmethylsulfonamido)isophthalamide], the IC50 in assay [1] (setting [2]) was above 5 µM. Further, the Ki at memapsin 2 (read-out: M2K) lay within 0.301 to 0.5 µM.

`COc1cccc(CNCC(O)C(Cc2ccccc2)NC(=O)c2cccc(C(=O)N(Cc3nc(C)cs3)C(C)C)c2)c1` (centres unmarked) [N1-(3-hydroxy-4-(3-methoxybenzylamino)-1-phenylbutan-2-yl)-N3-isopropyl-N3-((4-methylthiazol-2-yl)methyl)isophthalamide]: in assay [1] (setting [2]), the IC50 was below 1 µM. Further, at memapsin 2 (read-out: M2K), the Ki is below 0.3 µM.

For the molecule `COc1cccc(CNCC(O)C(Cc2ccccc2)NC(=O)c2cccc(C(=O)N(C)Cc3csc(C)n3)c2)c1` (centres unmarked) [N1-(3-hydroxy-4-(3-methoxybenzylamino)-1-phenylbutan-2-yl)-N3-methyl-N3-((2-methylthiazol-4-yl)methyl)isophthalamide], the IC50 in assay [1] (setting [2]) is below 1 µM. Also, the Ki at memapsin 2 (read-out: M2K) is below 0.3 µM.

Turning to `COc1cccc(CNCC(O)C(Cc2ccccc2)NC(=O)c2cccc(C(=O)N(C)Cc3nc(C)co3)c2)c1` (centres unmarked) [N1-(3-hydroxy-4-(3-methoxybenzylamino)-1-phenylbutan-2-yl)-N3-methyl-N3-((4-methyloxazol-2-yl)methyl)isophthalamide], in assay [1] (read-out: Cell), the IC50 was below 1 µM. Besides, the Ki on memapsin 2 (M2K) is below 0.3 µM.

Take `COc1cccc(CNCC(O)C(Cc2ccccc2)NC(=O)c2cc(C(=O)N(C)Cc3nc(C)cs3)cc([N+](=O)[O-])c2)c1` (centres unmarked) [N1-(3-hydroxy-4-(3-methoxybenzylamino)-1-phenylbutan-2-yl)-N3-methyl-N3-((4-methylthiazol-2-yl)methyl)-5-nitroisophthalamide]: the IC50 in assay [1] (setting [2]) is below 1 µM. Further, the Ki on memapsin 2 (read-out: M2K) was below 0.3 µM.

In the case of `COc1ccc(CNCC(O)C(Cc2ccccc2)NC(=O)c2cccc(C(=O)N(C)Cc3nc(C)cs3)c2)cc1` (centres unmarked) [N1-(3-hydroxy-4-(4-methoxybenzylamino)-1-phenylbutan-2-yl)-N3-methyl-N3-((4-methylthiazol-2-yl)methyl)isophthalamide], the IC50 in assay [1] (setting [2]) fell in the range of 1 to 5 µM. Besides, the Ki on memapsin 2 (read-out: M2K) is above 0.501 µM.

In the case of `COc1ccc(CCNCC(O)C(Cc2ccccc2)NC(=O)c2cccc(C(=O)N(C)Cc3nc(C)cs3)c2)cc1` (centres unmarked) [N1-(3-hydroxy-4-(4-methoxyphenethylamino)-1-phenylbutan-2-yl)-N3-methyl-N3-((4-methylthiazol-2-yl)methyl)isophthalamide], the IC50 in assay [1] (setting [2]) was 1 to 5 µM. In addition, the Ki at memapsin 2 (read-out: M2K) is above 0.501 µM.

On to `COc1ccc(S(=O)(=O)NCC(O)C(Cc2ccccc2)NC(=O)c2cc(C(=O)NC(C)c3ccccc3)cc(N(C)S(C)(=O)=O)c2)cc1` (centres unmarked) [N1-(3-hydroxy-4-(4-methoxyphenylsulfonamido)-1-phenylbutan-2-yl)-5-(N-methylmethylsulfonamido)-N3-(1-phenylethyl)isophthalamide], for which, in assay [1] (setting [2]), the IC50 was in the range of 1 to 5 µM. Besides, the Ki on memapsin 2 (read-out: M2K) is above 0.501 µM.

On to `COc1cccc(CN2CCC(CNCC(O)C(Cc3ccccc3)NC(=O)c3cc(C(=O)NC(C)c4ccccc4)cc(N(C)S(C)(=O)=O)c3)CC2)c1` (centres unmarked) [N1-(3-hydroxy-4-((1-(3-methoxybenzyl)piperidin-4-yl)methylamino)-1-phenylbutan-2-yl)-5-(N-methylmethylsulfonamido)-N3-(1-phenylethyl)isophthalamide], for which the IC50 in assay [1] (setting [2]) is above 5 µM. Besides, at memapsin 2 (read-out: M2K), the Ki is above 0.501 µM.

`CC(NC(=O)c1cc(C(=O)NC(Cc2ccccc2)C(O)CNCC2CCCN2C)cc(N(C)S(C)(=O)=O)c1)c1ccccc1` (centres unmarked) [N1-(3-hydroxy-4-((1-methylpyrrolidin-2-yl)methylamino)-1-phenylbutan-2-yl)-5-(N-methylmethylsulfonamido)-N3-(1-phenylethyl)isophthalamide]: in assay [1] (setting [2]), the IC50 is above 5 µM. In addition, the Ki on memapsin 2 (read-out: M2K) is above 0.501 µM.

Turning to `COC1CCCC(CNCC(O)C(Cc2ccccc2)NC(=O)c2cc(C(=O)NC(C)c3ccccc3)cc(N(C)S(C)(=O)=O)c2)C1` (centres unmarked) [N1-(3-hydroxy-4-((3-methoxycyclohexyl)methylamino)-1-phenylbutan-2-yl)-5-(N-methylmethylsulfonamido)-N3-(1-phenylethyl)isophthalamide], in assay [1] (setting [2]), the IC50 lay in the range of 1 to 5 µM. The Ki at memapsin 2 (read-out: M2K) was above 0.501 µM.

Take `Cc1csc(CN(C)C(=O)c2cccc(C(=O)NC(Cc3ccccc3)C(O)CNCc3cncc(OCC(C)C)c3)c2)n1` (centres unmarked) [N1-(3-hydroxy-4-((5-isobutoxypyridin-3-yl)methylamino)-1-phenylbutan-2-yl)-N3-methyl-N3-((4-methylthiazol-2-yl)methyl)isophthalamide]: the IC50 in assay [1] (setting [2]) was below 1 µM. Further, the Ki at memapsin 2 (read-out: M2K) was below 0.3 µM.

Turning to `Cc1csc(CN(C)C(=O)c2cccc(C(=O)NC(Cc3ccccc3)C(O)CNCc3cncc(CC(C)C)c3)c2)n1` (centres unmarked) [N1-(3-hydroxy-4-((5-isobutylpyridin-3-yl)methylamino)-1-phenylbutan-2-yl)-N3-methyl-N3-((4-methylthiazol-2-yl)methyl)isophthalamide], in assay [1] (setting [2]), the IC50 is below 1 µM. Moreover, the Ki on memapsin 2 (read-out: M2K) is below 0.3 µM.

Regarding `Cc1csc(CN(C)C(=O)c2cccc(C(=O)NC(Cc3ccccc3)C(O)CNCc3cncc(OC(C)C)c3)c2)n1` (centres unmarked) [N1-(3-hydroxy-4-((5-isopropoxypyridin-3-yl)methylamino)-1-phenylbutan-2-yl)-N3-methyl-N3-((4-methylthiazol-2-yl)methyl)isophthalamide], in assay [1] (setting [2]), the IC50 is below 1 µM. The Ki at memapsin 2 (read-out: M2K) was below 0.3 µM.

For `COc1cncc(CNCC(O)C(Cc2ccccc2)NC(=O)c2cccc(C(=O)N(C)Cc3nc(C)cs3)c2)c1` (centres unmarked) [N1-(3-hydroxy-4-((5-methoxypyridin-3-yl)methylamino)-1-phenylbutan-2-yl)-N3-methyl-N3-((4-methylthiazol-2-yl)methyl)isophthalamide], the IC50 in assay [1] (setting [2]) is below 1 µM. Besides, on memapsin 2 (read-out: M2K), the Ki was below 0.3 µM.

In the case of `COc1ccc(CCNCC(O)C(Cc2ccccc2)NC(=O)c2cc(C(=O)NC(C)c3ccccc3)cc(N(C)S(C)(=O)=O)c2)cc1OC` (centres unmarked) [N1-(4-(3,4-dimethoxyphenethylamino)-3-hydroxy-1-phenylbutan-2-yl)-5-(N-methylmethylsulfonamido)-N3-(1-phenylethyl)isophthalamide], the IC50 in assay [1] (setting [2]) is below 1 µM. Further, on memapsin 2 (read-out: M2K), the Ki was below 0.3 µM.

Take `Cc1csc(CN(C)C(=O)c2cccc(C(=O)NC(Cc3ccccc3)C(O)CNCc3cccc(OC(F)F)c3)c2)n1` (centres unmarked) [N1-(4-(3-(difluoromethoxy)benzylamino)-3-hydroxy-1-phenylbutan-2-yl)-N3-methyl-N3-((4-methylthiazol-2-yl)methyl)isophthalamide]: the IC50 in assay [1] (setting [2]) is below 1 µM. Further, at memapsin 2 (read-out: M2K), the Ki is below 0.3 µM.

For `CCOc1cccc(CNCC(O)C(Cc2ccccc2)NC(=O)c2cc(C(=O)NC(C)c3ccccc3)cc(N(C)S(C)(=O)=O)c2)c1` (centres unmarked) [N1-(4-(3-ethoxybenzylamino)-3-hydroxy-1-phenylbutan-2-yl)-5-(N-methylmethylsulfonamido)-N3-(1-phenylethyl)isophthalamide], the IC50 in assay [1] (setting [2]) was below 1 µM. The Ki on memapsin 2 (read-out: M2K) is below 0.3 µM.

In the case of `C#Cc1cccc(CNCC(O)C(Cc2ccccc2)NC(=O)c2cc(C(=O)NC(C)c3ccccc3)cc(N(C)S(C)(=O)=O)c2)c1` (centres unmarked) [N1-(4-(3-ethynylbenzylamino)-3-hydroxy-1-phenylbutan-2-yl)-5-(N-methylmethylsulfonamido)-N3-(1-phenylethyl)isophthalamide], the IC50 in assay [1] (setting [2]) was below 1 µM. Further, the Ki on memapsin 2 (read-out: M2K) was below 0.3 µM.
